Test results taken from US20260285850A1, “SUBSTITUTED OXAZOLIDINONES AND IMIDAZOLINONES AS HERBICIDES” (FMC CORPORATION, priority 2023, published 2026).

Experiments:
Assay type in all cases: in vivo
[1] = system: oat, wild (wild oat, Avena fatua); experiment: Test A postemergence application, visual injury rating 0-100; conditions: 10 days
In short: (§1)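 Compounds formulated in a non-phytotoxic solvent with surfactant are sprayed onto soil of freshly planted loam-sand pots ahead of emergence, or onto emerged plants 2-10 cm tall. After a 10-day greenhouse period, each species is scored visually for injury against untreated controls.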

corn (Zea mays) [2] = experiment: as above; conditions: 10 days
In short: as §1

soybean (Glycine max) [3] = experiment: as above; conditions: 10 days
In short: as §1

[4] = system: blackgrass (Alopecurus myosuroides); experiment: as above; conditions: 10 days
In short: as §1

[5] = system: ryegrass, Italian (italian ryegrass, Lolium multiflorum); experiment: as above; conditions: 10 days
In short: as §1

[6] = system: galium (catchweed bedstraw, Galium aparine); experiment: as above; conditions: 10 days
In short: as §1

[7] = system: wheat (Triticum aestivum); experiment: as above; conditions: 10 days
In short: as §1

[8] = system: horseweed (Erigeron canadensis); experiment: as above; conditions: 10 days
In short: as §1

[9] = system: palmer (palmer amaranth, palmer pigweed, Amaranthus palmeri); experiment: as above; conditions: 10 days
In short: as §1

[10] = system: green foxtail (Setaria viridis); experiment: as above; conditions: 10 days
In short: as §1

kochia (Bassia scoparia) [11] = experiment: as above; conditions: 10 days
In short: as §1

[12] = system: ragweed (common ragweed, Ambrosia artemisiifolia); experiment: as above; conditions: 10 days
In short: as §1

[13] = system: barnyardgrass (Echinochloa crus-galli); experiment: as above; conditions: 10 days
In short: as §1

[14] = system: sedge, umbrella (small-flower umbrella sedge, Cyperus difformis); experiment: Test B flooded paddy test, visual plant response rating 0-100; conditions: 250 g ai/ha, Flood, applied to paddy water, evaluated after 13 days
In short: (§2)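 Each species was raised to two leaves before flooding to a 3 cm depth and dosing the water with compound. Injury was assessed by eye after 13 days under greenhouse conditions.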

[15] = system: ducksalad (Heteranthera limosa); experiment: as above; conditions: 250 g ai/ha, Flood, applied to paddy water, evaluated after 13 days
In short: as §2

[16] = system: barnyardgrass (Echinochloa crusgalli); experiment: as above; conditions: 250 g ai/ha, Flood, applied to paddy water, evaluated after 13 days
In short: as §2

rice (Oryza sativa) = experiment: as above; conditions: 250 g ai/ha, Flood, applied to paddy water, evaluated after 13 days
In short: as §2

[17] = system: oat, wild (wild oat, Avena fatua); experiment: Test A preemergence soil spray, visual injury rating 0-100; conditions: 10 days, 0 = no effect, 100 = complete control
In short: as §1

corn (Zea mays) [18] = experiment: as above; conditions: 10 days, 0 = no effect, 100 = complete control
In short: as §1

soybean (Glycine max) [19] = experiment: as above; conditions: 10 days, 0 = no effect, 100 = complete control
In short: as §1

[20] = system: blackgrass (Alopecurus myosuroides); experiment: as above; conditions: 10 days, 0 = no effect, 100 = complete control
In short: as §1

[21] = system: ryegrass, Italian (italian ryegrass, Lolium multiflorum); experiment: as above; conditions: 10 days, 0 = no effect, 100 = complete control
In short: as §1

[22] = system: wheat (Triticum aestivum); experiment: as above; conditions: 10 days, 0 = no effect, 100 = complete control
In short: as §1

[23] = system: palmer (palmer amaranth, palmer pigweed, Amaranthus palmeri); experiment: as above; conditions: 10 days, 0 = no effect, 100 = complete control
In short: as §1

[24] = system: green foxtail (Setaria viridis); experiment: as above; conditions: 10 days, 0 = no effect, 100 = complete control
In short: as §1

kochia (Bassia scoparia) [25] = experiment: as above; conditions: 10 days, 0 = no effect, 100 = complete control
In short: as §1

[26] = system: ragweed (common ragweed, Ambrosia artemisiifolia); experiment: as above; conditions: 10 days, 0 = no effect, 100 = complete control
In short: as §1

[27] = system: barnyardgrass (Echinochloa crus-galli); experiment: as above; conditions: 10 days, 0 = no effect, 100 = complete control
In short: as §1

[28] = 31 g ai/ha, postemergence, 0 = no effect, 100 = complete control
[29] = Postemergence, 125 g ai/ha, 0 is no effect, 100 is complete control

CCOC(=O)C1CC(NC(=O)C2(C)CN(c3cc(F)cc(F)c3)C(=O)O2)CO1 (stereo not shown) [Compound 31]
Oat, Wild plant response rating (0-100) [1, 28]: 80
Oat, Wild plant response rating (0 to 100 scale) [1, 29]: 90
Corn plant response rating (0-100) (corn (Zea mays) [2]; [28]): 0
Corn plant response rating (0 to 100 scale) (corn (Zea mays) [2]; [29]): 50
Soybean plant response rating (0-100) (soybean (Glycine max) [3]; [28]): 10
Soybean plant response rating (0 to 100 scale) (soybean (Glycine max) [3]; [29]): 60
Blackgrass plant response rating (0-100) [4, 28]: 90
Blackgrass plant response rating (0 to 100 scale) [4, 29]: 100
Ryegrass, Italian plant response rating (0-100) [5, 28]: 60
Ryegrass, Italian plant response rating (0 to 100 scale) [5, 29]: 90
Galium plant response rating (0-100) [6, 28]: 60
Galium plant response rating (0 to 100 scale) [6, 29]: 70
Wheat plant response rating (0-100) [7, 28]: 90
Wheat plant response rating (0 to 100 scale) [7, 29]: 90
Horseweed plant response rating (0-100) [8, 28]: 0
Horseweed plant response rating (0 to 100 scale) [8, 29]: 0
Amaranth, Palmer plant response rating (0-100) [9, 28]: 0
Amaranth, Palmer / Pigweed, Palmer plant response rating (0 to 100 scale) [9, 29]: 20
Foxtail, Green plant response rating (0-100) [10, 28]: 0
Foxtail, Green plant response rating (0 to 100 scale) [10, 29]: 80
Kochia plant response rating (0-100) (kochia (Bassia scoparia) [11]; [28]): 0
Kochia plant response rating (0 to 100 scale) (kochia (Bassia scoparia) [11]; [29]): 70
Ragweed plant response rating (0-100) [12, 28]: 30
Ragweed plant response rating (0 to 100 scale) [12, 29]: 50
Barnyardgrass plant response rating (0-100) [13, 28]: 10
Barnyardgrass plant response rating (0 to 100 scale) [13, 29]: 90
Plant response rating, Sedge, Umbrella (0 to 100 scale, 0 is no effect and 100 is complete control) [14]: 0
Plant response rating, Ducksalad (0 to 100 scale, 0 is no effect and 100 is complete control) [15]: 0
Plant response rating, Barnyardgrass (0 to 100 scale, 0 is no effect and 100 is complete control) [16]: 0
Plant response rating, Rice (0 to 100 scale, 0 is no effect and 100 is complete control) (rice (Oryza sativa)): 0
Oat, Wild plant response rating (0-100) ([17]; 31 g ai/ha): 0
Oat, Wild plant response rating (0 to 100 scale) ([17]; 125 g ai/ha): 30
Corn plant response rating (0-100) (corn (Zea mays) [18]; 31 g ai/ha): 0
Corn plant response rating (0 to 100 scale) (corn (Zea mays) [18]; 125 g ai/ha): 0
Soybean plant response rating (0-100) (soybean (Glycine max) [19]; 31 g ai/ha): 0
Soybean plant response rating (0 to 100 scale) (soybean (Glycine max) [19]; 125 g ai/ha): 0
Blackgrass plant response rating (0-100) ([20]; 31 g ai/ha): 20
Blackgrass plant response rating (0 to 100 scale) ([20]; 125 g ai/ha): 30
Ryegrass, Italian plant response rating (0-100) ([21]; 31 g ai/ha): 0
Ryegrass, Italian plant response rating (0 to 100 scale) ([21]; 125 g ai/ha): 60
Wheat plant response rating (0-100) ([22]; 31 g ai/ha): 0
Wheat plant response rating (0 to 100 scale) ([22]; 125 g ai/ha): 90
Amaranth, Palmer plant response rating (0-100) ([23]; 31 g ai/ha): 0
Amaranth, Palmer plant response rating (0 to 100 scale) ([23]; 125 g ai/ha): 10
Foxtail, Green plant response rating (0-100) ([24]; 31 g ai/ha): 0
Foxtail, Green plant response rating (0 to 100 scale) ([24]; 125 g ai/ha): 0
Kochia plant response rating (0-100) (kochia (Bassia scoparia) [25]; 31 g ai/ha): 0
Kochia plant response rating (0 to 100 scale) (kochia (Bassia scoparia) [25]; 125 g ai/ha): 0
Ragweed plant response rating (0-100) ([26]; 31 g ai/ha): 0
Ragweed plant response rating (0 to 100 scale) ([26]; 125 g ai/ha): 0
Barnyardgrass plant response rating (0-100) ([27]; 31 g ai/ha): 0
Barnyardgrass plant response rating (0 to 100 scale) ([27]; 125 g ai/ha): 0
